The values below come from paper PMC4999093, “Novel NAD^+-Farnesal Dehydrogenase from Polygonum minus Leaves. Purification and Characterization of Enzyme in Juvenile Hormone III Biosynthetic Pathway in Plant” (PLoS ONE, 2016).

The assay relates to T1, NAD^+-farnesal dehydrogenase (P. minus farnesal dehydrogenase).
T1 construct: native enzyme purified from leaves, untagged
The experiment in a line: NADH formation at […] nm, Lineweaver-Burk. The settings on record: 100 mM glycine-NaOH pH 9.5, 35°C. Type of assay: biochemical, Persicaria minor.

SMILES strings stand for the structures.

As to `NC(=O)c1ccc[n+]([C@@H]2O[C@H](COP(=O)(O)OP(=O)(O)OC[C@H]3O[C@@H](n4cnc5c(N)ncnc54)[C@H](O)[C@@H]3O)[C@@H](O)[C@H]2O)c1` [NAD^+], under “co-substrate farnesal”, the Km was determined as 310 µM.
As to `CC(C)=CCCC(C)=CC=O` (mixture of isomers) [Citral, 3,7-dimethyl-2,6-octadienal], the Km (1.0 mM NAD+, substrate is a mixture of geranial and neral) is 690 µM.
In the case of `C/C(C=O)=C\c1ccccc1` [α-methylcinnamaldehyde], the Km (1.0 mM NAD+) was 1280 µM.
As for `O=C/C=C/c1ccccc1` [trans-cinnamaldehyde], for the setting “1.0 mM NAD+”, the Km was 860 µM.
As for `CC(C)=CCC/C(C)=C/CC/C(C)=C/C=O` (mixture of isomers) [Farnesal, 3,7,11-trimethyl-2,6,10-dodecatrienal], the Km (1.0 mM NAD+, substrate is a mixture of isomers) worked out at 130 µM.
